Measured values: ChEMBL document CHEMBL5096164, “In Vivo Profiling of a Natural Alkaloid, Anatabine, in Rodents: Pharmacokinetics and Anti-Inflammatory Efficacy” (J Nat Prod, 2021)
Calls of active or inactive are those of the source. The calls are words filed in the database; no cut-off is given here.

How the values were obtained:
Mus musculus [1] = experiment: Antiinflammatory activity LPS induced mouse model assessed as reduction in IL-7 at 1 to 5 mg/kg, ip preincubated for 1 hr followed by LPS stimulation and measured after 2 hrs by luminex xMAP bead based assay; assay type: functional, organism-based; details: dose 1-5 mg/kg, time 3.0 hrs
[2] = Cmax in rat at 0.40 mg/kg via inhalation; assay type: ADME, organism-based; parameters: dose 0.4 mg/kg, route inh; details: in vivo, inhaled or intranasal, 0.4 mg/kg
[3] = Cmax in C57BL/6 plasma at 2 mg/kg, ip measured after 3 to 240 mins by LC-MS/MS analysis; assay type: ADME, organism-based; parameters: time 3-240 min, dose 2 mg/kg, route ip; details: C57BL/6, mouse
[4] = Cmax in rat at 0.06 mg/kg via inhalation; assay type: ADME, organism-based; parameters: dose 0.06 mg/kg, route inh; details: in vivo, inhaled or intranasal
[5] = Drug concentration in carrageenan-induced paw edema in rat respiratory tract at 77.9 microg/L via inhalation measured for 30 mins; assay type: ADME; details: inhaled or intranasal, route inh, dose 77.9 µg/L, read-out: Drug uptake
[6] = Bioavailability in rat at 0.06 mg/kg via inhalation; assay type: ADME, organism-based; details: in vivo, inhaled or intranasal, route inh
[7] = Tmax in C57BL/6 brain at 2 mg/kg, ip measured after 3 to 240 mins by LC-MS/MS analysis; assay type: ADME, organism-based; details: C57BL/6, mouse, time 3-240 min
[8] = Drug uptake in rat aerosol at medium dose via inhalation measured for 30 mins; assay type: ADME; details: in vivo, inhaled_or_intranasal, 0.5 h, route inh
[9] = Drug uptake in MOG (35 to 55 residues)-induced experimental autoimmune encephalomyelitis unimmunized mouse in plasma at 50 microg/L by LC-MS/MS analysis; assay type: ADME; details: dose 50 µg/L
Mus musculus [10] = experiment: Antiinflammatory activity in ip /LPS induced mouse model assessed as reduction in tumor necrosis factor alpha level in plasma preincubated for 1 hr followed by LPS stimulation and measured after 2 hrs by ELISA method; assay type: functional, organism-based; details: dose 1-5 mg/kg, DDE = dose-dependent effect
[11] = AUC in rat at 2.73 mg/kg via inhalation; assay type: ADME, organism-based; parameters: dose 2.73 mg/kg, route inh; details: in vivo, inhaled or intranasal
[12] = Clearance in Wistar rat plasma at 2 mg/kg, iv administered as bolus dose measured after 5 to 360 mins by LC-MS/MS analysis; assay type: ADME, organism-based; details: time 5-360 min
[13] = Clearance in Wistar rat plasma at 1 mg/kg, iv administered as bolus dose measured after 5 to 360 mins by LC-MS/MS analysis; assay type: ADME, organism-based; details: in vivo, time 5-360 min
[14] = AUC in Wistar rat plasma at 2 mg/kg, iv administered as bolus dose measured after 5 to 360 mins by LC-MS/MS analysis; assay type: ADME, organism-based; parameters: time lower 5 min, dose 2 mg/kg, time upper 360 min, route iv
[15] = Antiinflammatory activity in MOG (35 to 55 residues)-induced experimental autoimmune encephalomyelitis mouse aerosol assessed as reduction in clinical score at 25 microg/L measured on 15 day (reference value: 1.9); assay type: ADME; details: inhaled_or_intranasal, 360 h, dose 25 µg/L
Mus musculus [16] = experiment: Antiinflammatory activity LPS induced mouse model assessed as reduction in IL-1 beta at 1 to 5 mg/kg, ip preincubated for 1 hr followed by LPS stimulation and measured after 2 hrs by luminex xMAP bead based assay; assay type: functional, organism-based; details: dose 1-5 mg/kg, time 3.0 hrs
Rattus norvegicus [17] = experiment: Antiinflammatory activity in carrageenan-induced paw edema rat model assessed as recovery of adverse effect at tremor at 5 mg/kg, ip or 20 mg/kg administered daily via whole body inhalation; assay type: functional, organism-based
[18] = Half life in rat at 0.06 mg/kg via inhalation; assay type: ADME, organism-based; details: in vivo, inhaled or intranasal, route inh
[19] = Drug uptake in MOG (35 to 55 residues)-induced experimental autoimmune encephalomyelitis immunized mouse in plasma at 50 microg/L by LC-MS/MS analysis; assay type: ADME; details: dose 50 µg/L
Mus musculus [20] = experiment: Antiinflammatory activity LPS induced mouse model assessed as reduction in granulocyte-macrophage colony stimulating factor at 1 to 5 mg/kg, ip preincubated for 1 hr followed by LPS stimulation and measured after 2 hrs by luminex xMAP bead based assay; assay type: functional, organism-based; details: dose 1-5 mg/kg, time 3.0 hrs
[21] = AUC in Wistar rat plasma at 5 mg/kg, ip administered as bolus dose measured after 5 to 360 mins by LC-MS/MS analysis; assay type: ADME, organism-based; parameters: dose 5 mg/kg, time upper 360 min, time lower 5 min, route ip
[22] = AUC in Wistar rat plasma at 1 mg/kg, iv administered as bolus dose measured after 5 to 360 mins by LC-MS/MS analysis; assay type: ADME, organism-based; parameters: time upper 360 min, time lower 5 min, dose 1 mg/kg, route iv
[23] = Half life in rat at 0.40 mg/kg via inhalation; assay type: ADME, organism-based; details: in vivo, inhaled or intranasal, route inh, dose 0.4 mg/kg
Rattus norvegicus [24] = experiment: Antiinflammatory activity in carrageenan-induced paw edema rat model assessed as inhibition of paw swelling at 5.34 mg/kg via inhalation measured at 2 hrs relative to control; assay type: functional; parameters: scale not given: the % may be the effect or the level left; details: route inh
Mus musculus [25] = experiment: Antiinflammatory activity LPS induced mouse model assessed as reduction in IL-5 at 1 to 5 mg/kg, ip preincubated for 1 hr followed by LPS stimulation and measured after 2 hrs by luminex xMAP bead based assay; assay type: functional, organism-based; details: dose 1-5 mg/kg, time 3.0 hrs
[26] = Tmax in C57BL/6 plasma at 2 mg/kg, ip measured after 3 to 240 mins by LC-MS/MS analysis; assay type: ADME, organism-based; details: C57BL/6, mouse, time 3-240 min
[27] = Drug uptake in MOG (35 to 55 residues)-induced experimental autoimmune encephalomyelitis mouse aerosol at 50 microg/L by LC-MS/MS analysis; assay type: ADME; details: in vivo, inhaled_or_intranasal, dose 50 µg/L
[28] = Bioavailability in Wistar rat plasma at 2 mg/kg, iv administered as bolus dose measured after 5 to 360 mins by LC-MS/MS analysis; assay type: ADME, organism-based; details: time 5-360 min
Mus musculus [29] = experiment: Antiinflammatory activity LPS induced mouse model assessed as reduction in interferon gamma induced protein 10 at 1 to 5 mg/kg, ip preincubated for 1 hr followed by LPS stimulation and measured after 2 hrs by luminex xMAP bead based assay; assay type: functional, organism-based; details: dose 1-5 mg/kg, time 3.0 hrs
[30] = Tmax in Wistar rat plasma at 2 mg/kg, iv administered as bolus dose measured after 5 to 360 mins by LC-MS/MS analysis; assay type: ADME, organism-based; details: time 5-360 min
[31] = Bioavailability in Wistar rat plasma at 1 mg/kg, iv administered as bolus dose measured after 5 to 360 mins by LC-MS/MS analysis; assay type: ADME, organism-based; details: in vivo, time 5-360 min
[32] = Clearance in C57BL/6 mouse plasma at 2 mg/kg, ip measured after 3 to 240 mins by LC-MS/MS analysis; assay type: ADME, organism-based; details: time 3-240 min
Mus musculus [33] = experiment: Antiinflammatory activity LPS induced mouse model assessed as reduction in macrophage inflammatory protein-1 beta at 1 to 5 mg/kg, ip preincubated for 1 hr followed by LPS stimulation and measured after 2 hrs by luminex xMAP bead based assay; assay type: functional, organism-based; details: dose 1-5 mg/kg, time 3.0 hrs
Rattus norvegicus [34] = experiment: Antiinflammatory activity in carrageenan-induced paw edema rat model assessed as inhibition of paw swelling at 5 mg/kg, ip measured at 2 hrs relative to control; assay type: functional; parameters: scale not given: the % may be the effect or the level left
Mus musculus [35] = experiment: Antiinflammatory activity LPS induced mouse model assessed as reduction in macrophage inflammatory protein-1alpha at 1 to 5 mg/kg, ip preincubated for 1 hr followed by LPS stimulation and measured after 2 hrs by luminex xMAP bead based assay; assay type: functional, organism-based; details: dose 1-5 mg/kg, time 3.0 hrs
[36] = Cmax in rat at 2.73 mg/kg via inhalation; assay type: ADME, organism-based; parameters: dose 2.73 mg/kg, route inh; details: in vivo, inhaled or intranasal

For C1=CCC(c2cccnc2)NC1 (stereo unspecified), the Activity (Mus musculus [1]) was “Active”, the Cmax [2] was 160 ng/mL and the Cmax [3] was 1370 ng/mL. It also gave a Cmax [4] of 20 ng/mL, a concentration at 0.5 h [5] of 0.87 ng/mL and a bioavailability [6] of 76.5%. The Tmax [7] was 7.2 min, the Drug uptake [8] was 25 µg/L and the Cp [9] was 1202.5 ng/mL. The Activity (Mus musculus [10]) was “Dde”, the AUC [11] was 3060 ng·h/mL and the clearance [12] was 8.11 mL/min/kg. It also gave a CL [13] of 0.00811 mL/min/kg, an AUC [14] of 2730 ng·h/mL and an Activity [15] of 0.6. For the same compound, the Activity (Mus musculus [16]) was “Active”, the Activity (Rattus norvegicus [17]) was “Active” and the half-life [18] was 238 min. For the same compound, the Cp [19] was 1139.7 ng/mL, the Activity (Mus musculus [20]) was “Active” and the AUC [21] was 6820 ng·h/mL. The AUC [22] was 1990 ng·h/mL, the half-life [23] was 230 min and the Activity (Rattus norvegicus [24]) was 39.6%. The Activity (Mus musculus [25]) was “Active”, the Tmax [26] was 1.8 min and the Drug uptake [27] was 50.6 ng/mL. The bioavailability [28] was 68.6%, the Activity (Mus musculus [29]) was “Active” and the Tmax [30] was 9.6 min. For the same compound, the F [31] was 100%, the CL/F [32] was 78.6 mL/min/kg and the Activity (Mus musculus [33]) was “Active”. For the same compound, the Activity (Rattus norvegicus [34]) was 46.1%, the Activity (Mus musculus [35]) was “Active” and the Cmax [36] was 780 ng/mL.
